Assay type in all cases: biochemical, bovine
The target of experiment [1] is T1, PI3Kα Q859A mutant (Bos taurus, UniProt P32871, Q859A).
T1 construct: His; made in house; host or cells: Sf9 insect cells (baculovirus co-infection)
Kind of experiment: Enzymatic HTRF assay, PI3Kα Q859A mutant. The protocol: (§1) Mutagenesis to generate PI3Kα (p110α) mutant Q859A is performed with the QuikChange II Site-Directed Mutagenesis kit (Stratagene (cat. no 200523) and the oligonucleotides
(§2) The Phosphoinositide 3-kinase (PI3-Kinase or PI3K) Homogenous Time-Resolved (HTRF®) assay kit is purchased from Upstate (now Millipore Corporation, Billerica, Mass., USA). PIP2 and PiP3 is purchased from Avanti Polar Lipids (Alabaster, Ala., USA), microplates from Greiner (Frickenhausen, Germany; Catalog No. 781207). All other reagents are purchased from Sigma (St Louis, Mo., USA).
(§3) The enzymatic Homogenous Time-Resolved Fluorescense (HTRF®) assay (from Upstate (now Millipore Corporation, Billerica, Mass., USA) is performed essentially as described by Sugita et al. (2008), Biochem. Biophys. Res. Commun 377(3):941-5. PI3Kα (0.25-1.5 ng) is incubated for 60 minutes at room temperature in 20 μl buffer containing 10 mM MgCl2, 30 μM ATP, 20 μM 1,2-dioctanoyl-sn-glycero-3-phospho-(1′-myo-inositol-4′,5′-bisphosphate) (ammonium salt) (PIP2), 150 mM NaCl, 5 mM (dl-Dithiothreitol) DTT, and 25 mM Tris/HCl (pH 7.5) in 384-well white plates. The kinase reaction is initiated by adding ATP (30 μM) for inhibition studies and by adding PI3Kα for ATP kinetics (0-200 μM ATP).
(§4) PI3K inhibitor (S)-Pyrrolidine-1,2-dicarboxylic acid 2-amide 1-({4-methyl-5-[2-(2,2,2-trifluoro-1,1-dimethyl-ethyl)-pyridin-4-yl]-thiazol-2-yl}-amide) (hereinafter “Compound I”) is diluted successively in Dimethyl sulfoxide (DMSO) and in buffer (final concentration: 2.5% DMSO). The kinase reaction is stopped by addition of the HTRF reagents according to manufacturer's instructions. […] The plate is read using Tecan's GeniosPro® multilabel reader (from Tecan Group Ltd., Männedorf, Switzerland) in time-resolved fluorescence mode (Excitation filter: 340 nm; Emission filter 1: 620 nm; Emission filter 2: 665 nm; Mirror: dichroic2; Lag time: 150 μs; Integration time: 500 μs; 10 flashes).
(§5) The HTRF signal is determined according to the formula: HTRF signal=10000×(emission at 665 nm/emission at 620 nm). […]

The next experiment has as its target T2, PI3Kα wildtype (wt) (Bos taurus, UniProt P32871).
T2 construct: His; made in house; host or cells: Sf9 insect cells (baculovirus co-infection)
Kind of experiment: Enzymatic HTRF assay, PI3Kα wild-type.
Source text: The Phosphoinositide 3-kinase (PI3-Kinase or PI3K) Homogenous Time-Resolved (HTRF®) assay kit is purchased from Upstate (now Millipore Corporation, Billerica, Mass., USA). PIP2 and PiP3 is purchased from Avanti Polar Lipids (Alabaster, Ala., USA), microplates from Greiner (Frickenhausen, Germany; Catalog No. 781207). All other reagents are purchased from Sigma (St Louis, Mo., USA). […]
PI3K inhibitor (S)-Pyrrolidine-1,2-dicarboxylic acid 2-amide 1-({4-methyl-5-[2-(2,2,2-trifluoro-1,1-dimethyl-ethyl)-pyridin-4-yl]-thiazol-2-yl}-amide) (hereinafter “Compound I”) is diluted successively in Dimethyl sulfoxide (DMSO) and in buffer (final concentration: 2.5% DMSO). […] The plate is read using Tecan's GeniosPro® multilabel reader (from Tecan Group Ltd., Männedorf, Switzerland) in time-resolved fluorescence mode (Excitation filter: 340 nm; Emission filter 1: 620 nm; Emission filter 2: 665 nm; Mirror: dichroic2; Lag time: 150 μs; Integration time: 500 μs; 10 flashes).
as §5

Experiment [2] has as its system PI3Kα Q859A mutant. The experiment is described as follows: Enzymatic HTRF assay, PI3Kα Q859A mutant. The note with it: IC50 Q859A / IC50 wildtype. The procedure: as §1, §2, §3, §4, §5

T2 sequence (P32871 whole entry): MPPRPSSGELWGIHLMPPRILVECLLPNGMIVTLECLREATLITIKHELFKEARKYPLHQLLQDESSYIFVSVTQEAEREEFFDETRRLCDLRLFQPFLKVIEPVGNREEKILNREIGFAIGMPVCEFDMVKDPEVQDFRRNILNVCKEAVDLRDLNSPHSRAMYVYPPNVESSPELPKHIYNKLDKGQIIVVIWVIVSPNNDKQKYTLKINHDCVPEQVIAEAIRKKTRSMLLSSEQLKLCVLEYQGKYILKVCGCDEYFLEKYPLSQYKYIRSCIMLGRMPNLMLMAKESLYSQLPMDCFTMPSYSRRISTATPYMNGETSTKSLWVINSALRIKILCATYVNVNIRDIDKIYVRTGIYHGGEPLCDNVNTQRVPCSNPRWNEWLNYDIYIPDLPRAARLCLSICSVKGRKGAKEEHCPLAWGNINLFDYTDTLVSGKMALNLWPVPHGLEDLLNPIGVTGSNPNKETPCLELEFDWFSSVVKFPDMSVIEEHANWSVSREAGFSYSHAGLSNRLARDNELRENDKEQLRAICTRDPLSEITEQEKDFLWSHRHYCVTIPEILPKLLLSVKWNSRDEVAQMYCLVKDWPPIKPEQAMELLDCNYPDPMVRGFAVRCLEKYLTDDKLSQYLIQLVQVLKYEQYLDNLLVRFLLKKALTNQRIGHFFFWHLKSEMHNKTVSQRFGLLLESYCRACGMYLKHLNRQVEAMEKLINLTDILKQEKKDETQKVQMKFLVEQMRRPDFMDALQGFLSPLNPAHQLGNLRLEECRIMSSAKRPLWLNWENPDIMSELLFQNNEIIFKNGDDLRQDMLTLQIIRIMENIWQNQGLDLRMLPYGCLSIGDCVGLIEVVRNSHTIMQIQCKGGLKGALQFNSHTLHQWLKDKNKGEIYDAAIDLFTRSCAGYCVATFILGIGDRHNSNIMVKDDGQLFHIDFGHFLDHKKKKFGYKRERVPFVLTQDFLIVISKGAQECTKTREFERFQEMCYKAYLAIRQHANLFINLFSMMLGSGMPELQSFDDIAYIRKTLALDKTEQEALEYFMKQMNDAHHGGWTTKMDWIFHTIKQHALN
T2 sequence (P27986 whole entry partner): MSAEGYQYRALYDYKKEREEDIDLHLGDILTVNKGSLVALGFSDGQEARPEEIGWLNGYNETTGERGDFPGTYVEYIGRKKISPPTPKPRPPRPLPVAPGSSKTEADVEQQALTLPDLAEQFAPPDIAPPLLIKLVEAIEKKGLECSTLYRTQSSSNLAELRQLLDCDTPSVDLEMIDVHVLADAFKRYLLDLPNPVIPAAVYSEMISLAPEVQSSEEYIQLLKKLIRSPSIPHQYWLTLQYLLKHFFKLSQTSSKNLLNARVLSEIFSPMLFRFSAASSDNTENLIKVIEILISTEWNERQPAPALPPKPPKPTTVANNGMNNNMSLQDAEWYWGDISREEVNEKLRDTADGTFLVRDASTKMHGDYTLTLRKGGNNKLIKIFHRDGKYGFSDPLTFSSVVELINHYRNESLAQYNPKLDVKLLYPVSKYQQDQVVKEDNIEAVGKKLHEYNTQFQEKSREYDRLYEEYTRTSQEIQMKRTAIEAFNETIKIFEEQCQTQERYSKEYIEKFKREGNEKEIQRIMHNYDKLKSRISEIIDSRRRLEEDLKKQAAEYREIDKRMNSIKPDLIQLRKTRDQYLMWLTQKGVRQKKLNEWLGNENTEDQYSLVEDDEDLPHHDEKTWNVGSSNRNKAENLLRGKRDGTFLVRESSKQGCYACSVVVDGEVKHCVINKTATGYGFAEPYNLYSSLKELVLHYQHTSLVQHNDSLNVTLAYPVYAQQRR
T1 sequence (P32871 whole entry Q859A): as the sequence (P32871 whole entry) above, with Q859A counted along it
T1 sequence (P27986 whole entry partner): as the sequence (P27986 whole entry partner) above

For the compound `Nc1ncnc2c1ncn2[C@@H]1O[C@H](COP(=O)(O)OP(=O)(O)OP(=O)(O)O)[C@@H](O)[C@H]1O` [ATP, reference compound], the Michaelis constant (Km) on PI3Kα Q859A mutant [1] (PI3Kα Q859A mutant, 0-200 μM ATP, mean ± S.E. of 5 experiments, read-out: Michaelis constant (Km), ATP activation kinetics) turned out to be 72 ± 8 µM; at PI3Kα wildtype (wt) (PI3K wild-type, 0-200 μM ATP, mean ± S.E. of 14 experiments, read-out: Michaelis constant (Km), ATP activation kinetics), 60 ± 6 µM.
As for `Cc1nc(NC(=O)N2CCC[C@H]2C(N)=O)sc1-c1ccnc(C(C)(C)C(F)(F)F)c1` [Compound I, (S)-Pyrrolidine-1,2-dicarboxylic acid 2-amide 1-({4-methyl-5-[2-(2,2,2-trifluoro-1,1-dimethyl-ethyl)-pyridin-4-yl]-thiazol-2-yl}-amide)], the IC50 was determined as 122 ± 28 nM against PI3Kα Q859A mutant [1] (PI3Kα Q859A mutant p110α/p85α, 30 μM ATP, 20 μM PIP2, 60 min, mean ± S.E. of 7 experiments) and 8.4 ± 1 nM against PI3Kα wildtype (wt) (PI3Kα wild-type p110α/p85α, 30 μM ATP, 20 μM PIP2, 60 min, mean ± S.E. of 10 experiments). In the experiment on PI3Kα Q859A mutant [2], the “fold increase in the IC50, Q859A mutant versus wildtype” value was 14.5 fold.

(Values after US9795596B2, “Pharmaceutical diagnostic” (Novartis AG, priority 2012, dated 2017).)
